Like-named read-outs stand apart in the source and are kept apart here.
Legend:
HCC827 = assay: In vivo anticancer activity, lung cancer xenograft mice (injected with HCC827); design: species or system nude mice; details: for tumor size relative to that of the vehicle controls: days 1-5 and 8-12, 22nd day post treatment
Procedure: In vivo efficacy of the compounds of this invention was assessed using lung cancer xenograft mice (injected with HCC827), as described in Cancer Research 2004, 64, 4621-4628.
HCC827 cells were injected via s.c. in nude mice to form lung cancer xenograft mice. Mice bearing tumor with a size of ˜100 mm^3 were randomly assigned to two groups: a vehicle control group (10 mice), and a treatment group (21 mice). Of the treated mice, 21 received Compound 62 at a daily dosage of 5 mg/kg and 15 mg/kg via IV injection through the tail veins for 5 days/week for 2 consecutive weeks (days 1-5 and 8-12).

GST-EGFR-KD^L858R/T790M = molecular target: T1, GST-EGFR-KD^L858R/T790M (Homo sapiens, UniProt P00533, L858R/T790M); assay: Double mutant EGFR kinase assay (Kinase-Glo); assay type: biochemical; details: 1 μM ATP, read-out: IC50 (concentration at which activity of 50% of mutant EGFR is inhibited)
T1 construct: residues from 696 to 1022 and with L858R/T790M; made in house; host or cells: Sf9 insect cells (baculovirus)

HCC827 cells = assay: HCC827 cell viability, MTS assay; assay type: cell-based; details: Homo sapiens, 96-h incubation, read-out: IC50 (concentration which causes 50% of the cell death)
GST-EGFR-KD^WT = molecular target: T2, GST-EGFR-KD^WT (Homo sapiens, UniProt P00533); assay: EGFR kinase assay (Kinase-Glo); assay type: biochemical; details: 5 μM ATP, read-out: IC50 (concentration at which activity of 50% of EGFR is inhibited)
T2 construct: 50 ng GST-EGFR-KD^WT proteins; made in house
T2 sequence (P00533 712-979 limits assumed): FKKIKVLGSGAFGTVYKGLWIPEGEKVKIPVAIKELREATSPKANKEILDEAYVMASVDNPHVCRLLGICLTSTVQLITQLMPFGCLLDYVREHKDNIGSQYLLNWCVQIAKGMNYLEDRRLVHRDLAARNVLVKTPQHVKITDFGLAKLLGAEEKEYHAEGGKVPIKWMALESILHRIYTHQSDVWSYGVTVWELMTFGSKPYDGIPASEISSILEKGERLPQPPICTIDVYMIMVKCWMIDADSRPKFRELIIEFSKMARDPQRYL

T1 sequence (P00533 696-1022 T790M/L858R): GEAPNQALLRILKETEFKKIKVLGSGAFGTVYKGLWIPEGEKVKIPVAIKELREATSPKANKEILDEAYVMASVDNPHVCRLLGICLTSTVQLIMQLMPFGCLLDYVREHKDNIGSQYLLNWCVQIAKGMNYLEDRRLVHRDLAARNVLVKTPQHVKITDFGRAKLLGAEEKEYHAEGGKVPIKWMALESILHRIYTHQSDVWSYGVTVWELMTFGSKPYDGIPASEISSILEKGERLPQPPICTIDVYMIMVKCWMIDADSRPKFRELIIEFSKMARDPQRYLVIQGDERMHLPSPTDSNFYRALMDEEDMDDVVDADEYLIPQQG

Row | Structure (SMILES) | IC50 (GST-EGFR-KD^L858R/T790M) | IC50 (GST-EGFR-KD^WT) | tumor size relative to that of the vehicle controls (HCC827; 5 mg/kg daily IV) | tumor size relative to that of the vehicle controls (HCC827; 15 mg/kg daily IV) | tumor growth suppression (HCC827; 5 and 15 mg/kg IV, p<0.05) | IC50 (HCC827 cells) | IC50 (GST-EGFR-KD^WT; range given in mixed units)
1 | CN(C)C/C=C/C(=O)N1CCc2c(sc3ncnc(N[C@H](CO)c4ccccc4)c23)C1 [Compound 62] | 10 to 499 nM | < 59 nM | 39% | 23% | suppressed tumor growth significantly | 1 to 99 nM | –
2 | O=C(/C=C/CN1CCOCC1)N1CCc2c(sc3ncnc(N[C@H](CO)c4ccccc4)c23)C1 [Compound 66] | 500 to 2500 nM | < 59 nM | – | – | – | 1 to 99 nM | –
3 | CN1CCN(C/C=C/C(=O)N2CCc3c(sc4ncnc(N[C@H](CO)c5ccccc5)c34)C2)CC1 [Compound 67] | 500 to 2500 nM | < 59 nM | – | – | – | 1 to 99 nM | –
4 | CCN(CC)C/C=C/C(=O)N1CCc2c(sc3ncnc(N[C@H](CO)c4ccccc4)c23)C1 [Compound 75] | 500 to 2500 nM | < 59 nM | – | – | – | 1 to 99 nM | –
5 | C=CC(=O)N1CCc2c(sc3ncnc(N[C@H](CCO)c4ccccc4)c23)C1 [Compound 176] | 10 to 499 nM | < 59 nM | – | – | – | 1 to 99 nM | –
6 | C[C@@H](Nc1ncnc2sc3c(c12)CCN(C(=O)/C=C/CN(C)C)C3)c1ccccc1 [Compound 178] | 500 to 2500 nM | < 59 nM | – | – | – | 1 to 99 nM | –
7 | CCN(CC)C/C=C/C(=O)N1CCc2c(sc3ncnc(N[C@H](C)c4ccccc4)c23)C1 [Compound 190] | 500 to 2500 nM | < 59 nM | – | – | – | 1 to 99 nM | –
8 | C=CC(=O)N1CCc2c(sc3ncnc(N[C@H](CO)Cc4ccccc4)c23)C1 [Compound 193] | 500 to 2500 nM | < 59 nM | – | – | – | 301 to 999 nM | –
9 | C=CC(=O)N1CCc2c(sc3ncnc(N[C@H](COCc4ccccc4)c4ccccc4)c23)C1 [Compound 195] | 10 to 499 nM | < 59 nM | – | – | – | 1 to 99 nM | –
10 | CN(C)C/C=C/C(=O)N1CCc2c(sc3ncnc(N[C@H](COCc4ccccc4)c4ccccc4)c23)C1 [Compound 198] | 500 to 2500 nM | < 59 nM | – | – | – | 1 to 99 nM | –
11 | C=CC(=O)N1CCc2c(sc3ncnc(N[C@H](COCc4cccc(F)c4)c4ccccc4)c23)C1 [Compound 200] | 10 to 499 nM | < 59 nM | – | – | – | 1 to 99 nM | –
12 | CN(C)C/C=C/C(=O)N1CCc2c(sc3ncnc(N[C@H](COCc4ccccn4)c4ccccc4)c23)C1 [Compound 203] | 500 to 2500 nM | < 59 nM | – | – | – | 1 to 99 nM | –
13 | CNC/C=C/C(=O)N1CCc2c(sc3ncnc(N[C@H](C)c4ccccc4)c23)C1 [Compound 205] | 500 to 2500 nM | < 59 nM | – | – | – | 1 to 99 nM | –
14 | CN(C)C/C=C/C(=O)N1CCc2c(sc3ncnc(N[C@H](COCc4cccc(F)c4)c4ccccc4)c23)C1 [Compound 210] | 10 to 499 nM | < 59 nM | – | – | – | 1 to 99 nM | –
15 | C[C@@H](Nc1ncnc2sc3c(c12)CCN(C(=O)/C=C/CNC1CC1)C3)c1ccccc1 [Compound 211] | 500 to 2500 nM | < 59 nM | – | – | – | 1 to 99 nM | –
16 | C=CC(=O)N1CCc2c(sc3ncnc(N[C@H](COCc4cccc(OC)c4)c4ccccc4)c23)C1 [Compound 223] | 10 to 499 nM | < 59 nM | – | – | – | 1 to 99 nM | –
17 | C=CC(=O)N1CCc2c(sc3ncnc(N[C@H](COCc4cccc(C)c4)c4ccccc4)c23)C1 [Compound 227] | 10 to 499 nM | < 59 nM | – | – | – | 1 to 99 nM | –
18 | COc1cccc(COC[C@@H](Nc2ncnc3sc4c(c23)CCN(C(=O)/C=C/CN(C)C)C4)c2ccccc2)c1 [Compound 228] | 500 to 2500 nM | < 59 nM | – | – | – | 1 to 99 nM | –
19 | CN(C)C/C=C/C(=O)N1CCc2c(sc3ncnc(N[C@H](COCc4ccccc4F)c4ccccc4)c23)C1 [Compound 232] | 500 to 2500 nM | < 59 nM | – | – | – | 1 to 99 nM | –
20 | C=CC(=O)Nc1cccc(-c2c(-c3ccccc3)oc3ncnc(N[C@H](C)c4ccccc4)c23)c1 [Compound 239] | 500 to 2500 nM | – | – | – | – | 1 to 99 nM | 101 to 900 nM

Continued, in another order:

Row | IC50 (GST-EGFR-KD^L858R/T790M) | IC50 (GST-EGFR-KD^WT) | Structure (SMILES) | tumor size relative to that of the vehicle controls (HCC827; 5 mg/kg daily IV) | tumor size relative to that of the vehicle controls (HCC827; 15 mg/kg daily IV) | tumor growth suppression (HCC827; 5 and 15 mg/kg IV, p<0.05) | IC50 (HCC827 cells) | IC50 (GST-EGFR-KD^WT; range given in mixed units)
21 | 500 to 2500 nM | < 59 nM | C=CC(=O)N1CCc2c(sc3ncnc(N[C@H](CC)c4ccccc4)c23)C1 [Compound 106] | – | – | – | 1 to 99 nM | –
22 | 10 to 499 nM | < 59 nM | C=CC(=O)N1CCc2c(sc3ncnc(N[C@H](COC)c4ccccc4)c23)C1 [Compound 185] | – | – | – | 1 to 99 nM | –
23 | 10 to 499 nM | < 59 nM | CN(C)C/C=C/C(=O)N1CCc2c(sc3ncnc(Nc4ccc(F)c(Cl)c4)c23)C1 [Compound 187] | – | – | – | 1 to 99 nM | –
24 | 500 to 2500 nM | – | C=CC(=O)N1CCc2c(sc3ncnc(NC(CCO)c4ccccc4)c23)C1 (stereo not drawn) [Compound 188] | – | – | – | 301 to 999 nM | 101 to 900 nM
25 | 500 to 2500 nM | < 59 nM | CC[C@@H](Nc1ncnc2sc3c(c12)CCN(C(=O)/C=C/CN(CC)CC)C3)c1ccccc1 [Compound 191] | – | – | – | 1 to 99 nM | –
26 | 10 to 499 nM | < 59 nM | C=CC(=O)N1CCc2c(sc3ncnc(N[C@H](COCc4ccc(C(F)(F)F)cc4)c4ccccc4)c23)C1 [Compound 202] | – | – | – | 100 to 300 nM | –
27 | 500 to 2500 nM | < 59 nM | C[C@@H](Nc1ncnc2sc3c(c12)CCN(C(=O)/C=C/CN(CCO)CCO)C3)c1ccccc1 [Compound 215] | – | – | – | 1 to 99 nM | –
28 | 10 to 499 nM | < 59 nM | C=CC(=O)N1CCc2c(sc3ncnc(N[C@H](COCc4cccc([N+](=O)[O-])c4)c4ccccc4)c23)C1 [Compound 226] | – | – | – | 1 to 99 nM | –
29 | 500 to 2500 nM | < 59 nM | CC#CC(=O)Nc1cccc(-c2c(-c3ccccc3)oc3ncnc(N[C@H](CO)c4ccccc4)c23)c1 [Compound 241] | – | – | – | 1 to 99 nM | –

— patent US8507502B2, “Fused bicyclic and tricyclic pyrimidine compounds as tyrosine kinase inhibitors” (National Health Research Institutes, priority 2008, dated 2013)
